Experimental data taken from patent US20090076111A1, “Methods for improving glycemic control in humans” (priority 2004, published 2009).

Experiments:
[1] = Preclinical oral bioavailability and urinary excretion of 4-OH-Ile in PROMILIN; assay type: in vivo, rat; conditions: rats
Protocol: In addition to the human clinical portion of the study, preclinical trials were conducted in rats to assess if the 4-OH-Ile in PROMILIN™ is orally bioavailable to rats and if it is excreted in their urine.

pancreatic beta cell = conditions: major isomer (2S,3R,4S), micromolar concentrations, glucose dependent; cited from earlier work

CC(O)C(C)C(N)C(=O)O (racemic) [4-OH-Ile, 4-hydroxyisoleucine]
oral bioavailability ([1]; 4-OH-Ile in PROMILIN, oral): bioavailable | time to absorption from the gut into the circulation ([1]; both diastereomers, after oral gavage of PROMILIN): ≤ 15 min | urinary excretion ([1]; both isomers): excreted in the urine | appearance of 4-OH-Ile in the circulation ([1]; coadministration of glucose and PROMILIN): slowed the appearance | glucose-induced insulin secretion (pancreatic beta cell): stimulate glucose-induced insulin secretion
